Calls of active or inactive are those of the source. The rule behind the calls is not given here.

The test system of the series is rodent carcinogenicity bioassays, tumor incidence. As to the kind of experiment: CCRIS carcinogenicity studies. The gist of the method:
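Archive of carcinogenicity, mutagenicity, tumor promotion and tumor inhibition results drawn from journals, NCI reports and other sources, expert-reviewed; covers 1985-2011 and is no longer updated.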

For `CCOc1ccc(NC(C)=O)cc1[N+](=O)[O-]`, the carcinogen call (Species: MOUSE, Strain/Sex: B6C3F1/FEMALE, Route: ORAL, Dose: 0, 0.73, 1.46% OF DIET, TWA, Dose: 0, 0.73, 1.46% OF DIET, TWA) is “inactive; negative”; the carcinogen call (Species: MOUSE, Strain/Sex: B6C3F1/MALE, Route: ORAL, Dose: 0, 0.73, 1.46% OF DIET, TWA, Dose: 0, 0.73, 1.46% OF DIET, TWA, Tumor Site: Type of Lesion: LIVER: HEPATOCELLULAR CARCINOMA OR ADENOMA) is “active; positive”; the carcinogen call (Species: RAT, Strain/Sex: F344/FEMALE, Route: ORAL, Dose: 0, 0.18, 0.36% OF DIET, TWA, Dose: 0, 0.18, 0.36% OF DIET, TWA) is “inactive; negative”; the carcinogen call (Species: RAT, Strain/Sex: F344/MALE, Route: ORAL, Dose: 0, 0.18, 0.36% OF DIET, TWA, Dose: 0, 0.18, 0.36% OF DIET, TWA) was “inactive; negative”.
As to `O=[N+]([O-])c1ccc(Nc2ccc(Nc3ccccc3)c(S(=O)(=O)O)c2)c([N+](=O)[O-])c1`, the carcinogen call reads like this: (Species: MOUSE, Strain/Sex: B6C3F1/FEMALE, Route: GAVAGE, Dose: 0, 250, 500 MG/KG IN CORN OIL 5D/WK FOR 103 WK (STUDY DURATION: 104 WK), Dose: 0, 250, 500 MG/KG IN CORN OIL 5D/WK FOR 103 WK (STUDY DURATION: 104 WK)) “inactive; negative”; (Species: MOUSE, Strain/Sex: B6C3F1/MALE, Route: GAVAGE, Dose: 0, 125, 250 MG/KG IN CORN OIL 5D/WK FOR 103 WK (STUDY DURATION: 104 WK), Dose: 0, 125, 250 MG/KG IN CORN OIL 5D/WK FOR 103 WK (STUDY DURATION: 104 WK)) “inactive; negative”; (Species: RAT, Strain/Sex: F344/FEMALE, Route: GAVAGE, Dose: 0, 375, 750 MG/KG IN CORN OIL 5D/WK FOR 103 WK (STUDY DURATION: 105 WK), Dose: 0, 375, 750 MG/KG IN CORN OIL 5D/WK FOR 103 WK (STUDY DURATION: 105 WK), Tumor Site: Type of Lesion: KIDNEY: TRANSITIONAL CELL CARCINOMA) “active; positive”; (Species: RAT, Strain/Sex: F344/MALE, Route: GAVAGE, Dose: 0, 375 MG/KG IN CORN OIL 5D/WK FOR 103 WK (STUDY DURATION: 104 WK)) “inactive; negative”.
In the case of `O=C/C(Br)=C/c1ccccc1`, the carcinogen call (Species: MOUSE, Strain/Sex: SLC:DDY/FEMALE, Route: DERMAL, Dose: 0, 0.25, 1, 4% IN OLIVE OIL 2/WK FOR 79 WK (STUDY DURATION: 79 WK), Dose: 0, 0.25, 1, 4% IN OLIVE OIL 2/WK FOR 79 WK (STUDY DURATION: 79 WK)) was “inactive; negative”.
As for `CC1=C(C)C(=O)C(C(CCCCCC(=O)O)c2ccccc2)=C(C)C1=O` (stereo not drawn), the carcinogen call by setting is: (Species: RAT, Strain/Sex: F344/FEMALE, Route: ORAL, Dose: 0, 3, 10, 30, 100 MG/KG/D IN THE DIET FOR 52 WK (STUDY DURATION: 52 WK), Dose: 0, 3, 10, 30, 100 MG/KG/D IN THE DIET FOR 52 WK (STUDY DURATION: 52 WK)) “inactive; negative”; (Species: RAT, Strain/Sex: F344/MALE, Route: ORAL, Dose: 0, 3, 10, 30, 100 MG/KG/D IN THE DIET FOR 52 WK (STUDY DURATION: 52 WK), Dose: 0, 3, 10, 30, 100 MG/KG/D IN THE DIET FOR 52 WK (STUDY DURATION: 52 WK)) “inactive; negative”.
With `O`, the carcinogen call is “inactive; negative” (Species: MOUSE, Strain/Sex: B6C3F1/FEMALE, Route: ORAL, Dose: 0, 0.5, 2% IN DIET FOR 96 WK FOLLOWED BY CONTROL DIET FOR 8 WK (STUDY DURATION: 104 WK), Dose: 0, 0.5, 2% IN DIET FOR 96 WK FOLLOWED BY CONTROL DIET FOR 8 WK (STUDY DURATION: 104 WK)); “inactive; negative” (Species: MOUSE, Strain/Sex: B6C3F1/FEMALE, Route: ORAL, Dose: 0, 500, 1250, 2500 PPM IN DRINKING WATER (APPROXIMATELY 0; 40; 90; 200 MG/KG BW) FOR 104 WK (STUDY DURATION: 105 WK), Dose: 0, 500, 1250, 2500 PPM IN DRINKING WATER (APPROXIMATELY 0; 40; 90; 200 MG/KG BW) FOR 104 WK (STUDY DURATION: 105 WK)); “inactive; negative” (Species: MOUSE, Strain/Sex: B6C3F1/MALE, Route: ORAL, Dose: 0, 0.5, 2% IN DIET FOR 96 WK FOLLOWED BY CONTROL DIET FOR 8 WK (STUDY DURATION: 104 WK), Dose: 0, 0.5, 2% IN DIET FOR 96 WK FOLLOWED BY CONTROL DIET FOR 8 WK (STUDY DURATION: 104 WK)); “inactive; negative” (Species: MOUSE, Strain/Sex: B6C3F1/MALE, Route: ORAL, Dose: 0, 500, 1250, 2500 PPM IN DRINKING WATER (APPROXIMATELY 0; 30; 75; 160 MG/KG BW) FOR 103 WK (STUDY DURATION: 103 WK), Dose: 0, 500, 1250, 2500 PPM IN DRINKING WATER (APPROXIMATELY 0; 30; 75; 160 MG/KG BW) FOR 103 WK (STUDY DURATION: 103 WK)); “inactive; negative” (Species: RAT, Strain/Sex: F344/FEMALE, Route: ORAL, Dose: 0, 500, 1250, 2500 PPM IN DRINKING WATER (APPROXIMATELY 0; 15; 45; 75 MG/KG BW) FOR 105 WK (STUDY DURATION: 106 WK), Dose: 0, 500, 1250, 2500 PPM IN DRINKING WATER (APPROXIMATELY 0; 15; 45; 75 MG/KG BW) FOR 105 WK (STUDY DURATION: 106 WK)); “inactive; negative” (Species: RAT, Strain/Sex: F344/MALE, Route: ORAL, Dose: 0, 500, 1250, 2500 PPM IN DRINKING WATER (APPROXIMATELY 0; 15; 30; 60 MG/KG BW) FOR 104 WK (STUDY DURATION: 105 WK), Dose: 0, 500, 1250, 2500 PPM IN DRINKING WATER (APPROXIMATELY 0; 15; 30; 60 MG/KG BW) FOR 104 WK (STUDY DURATION: 105 WK)). Besides, the carcinogen call was “active; positive” (Species: RAT, Strain/Sex: WISTAR/MALE, Route: INHALATION, Dose: 0, 10 MG/M3 OF RESPIRABLE DUST 7 HR/D 5 D/WK FOR 224 DAYS DURING A PERIOD OF 12 MO (STUDY DURATION: 29 MO), Tumor Site: Type of Lesion: LUNG: ADENOMA OR CARCINOMA) and “active; positive” (Species: RAT, Strain/Sex: WISTAR/MALE, Route: INTRAPERITONEAL, Dose: 0, 25 MG OF DUST SUSPENDED IN 2 ML PHOSPHATE BUFFERED SALINE (STUDY DURATION: >418 D), Tumor Site: Type of Lesion: LUNG: MESOTHELIOMA).
Regarding `c1ccc2c(c1)CCc1cc3c4c(ccc3cc1-2)CCCC4`, for the setting “Species: MOUSE, Strain/Sex: SWISS/FEMALE, Route: DERMAL, Dose: 0, 38 UG AS A 0.2% SOLUTION IN ACETONE APPLIED TO INTERSCAPULAR REGION 2/WK FOR 50 WK (STUDY DURATION: 60 WK), Tumor Site: Type of Lesion: SKIN: CARCINOMA”, the carcinogen call is “active; positive”.
Turning to `O=C1NC(=O)C(=O)C(=O)N1`, the carcinogen call was “active; positive” (Species: Rat, Strain/Sex: WBN/Kob (Diabetic)/Female (17/group), Route: Intravenous, Dose: 0, 40 mg/kg once, study duration 75 wks, Tumor Site: Type of Lesion: Forestomach: squamous cell carcinoma) and “active; positive” (Species: Rat, Strain/Sex: WBN/Kob (Diabetic)/Male (31/ group), Route: Intravenous, Dose: 0, 50 mg/kg once, study duration 75 wks, Tumor Site: Type of Lesion: Forestomach: squamous cell carcinoma).
For `CC(C)[N+](=O)[O-]`, the carcinogen call (Species: RAT, Route: INHALATION, Tumor Site: Type of Lesion: LIVER) was “active; positive”.
